Source: patent US3950525A, “Relaxation of smooth muscle in a mammal” (Pfizer Inc., priority 1975, dated 1976)
Structures can show the parent of a compound that is named as a salt.

System: collagen induced platelet aggregation
Test: In Vitro Inhibition of Platelet Aggregation (collagen induced, rabbit platelet-rich plasma)
Assay type: cell-based
Conditions: Oryctolagus cuniculus, 10 min; for inhibition at 60 µM: 6 × 10^^-5 mol./l.; for inhibition at 6 µM: 6 × 10^^-6 mol./l.; for inhibition at 600 µM: 6 × 10^^-4 mol./l.
Protocol: The ability of the compounds of the present invention to inhibit platelet aggregation in vitro is measured according to the method of Born, et al., J. Physiol., 168, 178 (1963) and comprises the following procedure: Anesthetized male rabbits are bled from a carotid artery into plastic centrifuge tubes containing 0.1 volume 3% sodium citrate. Platelet-rich plasma is separated by centrifugation at 100 G for 10 minutes at 20° C. […] After 10 minutes of incubation with the platelet-rich plasma at room temperature, collagen, a protein known to cause platelet aggregation, is added (0.27 ml. collagen/4 ml. plasma) and changes in the optical density are followed with a Spectronic 20 colorimeter attached to a Houston Instrument TY Recorder. Platelet aggregation is indicated by a decrease in optical density. The relative potency of the compounds of the present invention are thus rated on their ability to inhibit (percent) collagen induced platelet aggregation.

Structure (SMILES) | inhibition at 60 µM [%] | inhibition at 6 µM [%] | inhibition at 600 µM [%]
C=CCN(CC=C)c1cc(-c2cccs2)ncn1 | 50 | 40 | –
CCCC(=O)Nc1cccc(-c2cc(N(CC)CC)ncn2)c1 | 8 | – | 36
CCCCN(CCCC)c1cc(-c2cccc(NC(C)=O)c2)ncn1 | – | – | 15
CCN(CC)c1cc(-c2cccc(NC(=O)NC)c2)ncn1 | – | – | 23
CCN(CC)c1cc(-c2cccc(NC(=S)NC)c2)ncn1 | – | – | 4.9
CCN(CC)c1cc(-c2cccc(NC(=O)OC)c2)ncn1 | 11 | – | 95
CCCN(CCC)c1cc(-c2cccc(NS(C)(=O)=O)c2)ncn1 | 3 | – | 94
CCN(CCO)c1cc(-c2ccc(OC)cc2)ncn1 | 71 | 55 | 90
C=CCN(CC=C)c1cc(-c2ccc(OC)cc2)ncn1 | – | 55 | 90
COc1ccc(-c2cc(N3CCN(C)CC3)ncn2)cc1 | 55 | 14 | 85
CCCN(CCC)c1cc(-c2ccc(OC)cc2)ncn1 | 77 | 64 | 91
CN1CCN(c2cc(-c3ccc(Cl)cc3)ncn2)CC1 [4-(4-Methyl-1-piperazinyl)-6-(p-chlorophenyl)pyrimidine hydrochloride] | 65 | 2 | 99
CN1CCN(c2cc(-c3ccccc3)ncn2)CC1 [4-(4-Methyl-1-piperazinyl)-6-phenylpyrimidine dihydrochloride] | 99 | 59 | 99
CCc1c(-c2ccco2)ncnc1N(CC)CC [Ar=2-furyl; R1=C2H5; R2=C2H5; R3=C2H5] | 30 | – | –
CCN(CC)c1cc(-c2cccs2)ncn1 [Ar=2-thienyl; R1=C2H5; R2=C2H5; R3=H, 4-diethylamino-6-(2-thienyl)pyrimidine] | – | 75 | 94
CCNc1cc(-c2cccs2)ncn1 [Ar=2-thienyl; R1=C2H5; R2=H; R3=H] | 75 | 35 | 99
CCN(CC(F)(F)F)c1cc(-c2cccs2)ncn1 [Ar=2-thienyl; R1=CF3CH2; R2=C2H5; R3=H] | 65 | 58 | 75
FC(F)(F)CNc1cc(-c2cccs2)ncn1 [Ar=2-thienyl; R1=CF3CH2; R2=H; R3=H] | 81 | 14 | –
CN(C)c1cc(-c2cccs2)ncn1 [Ar=2-thienyl; R1=CH3; R2=CH3; R3=H] | 82 | 59 | 94
Nc1cc(-c2cccs2)ncn1 [Ar=2-thienyl; R1=H; R2=H; R3=H] | 9 | – | 91
CCCN(CCC)c1cc(-c2cccs2)ncn1 [Ar=2-thienyl; R1=n-C3H7; R2=n-C3H7; R3=H] | 60 | 66 | 60
CCN(CC)c1cc(-c2cccc(N(C)C)c2)ncn1 [Ar=3-(CH3)2NC6H4; R1=C2H5; R2=C2H5; R3=H, 4-Diethylamino-6-(m-dimethylaminophenyl)pyrimidine hydrochloride] | 95 | 85 | 89
CCCN(CCC)c1cc(-c2cccc(C(F)(F)F)c2)ncn1 [Ar=3-CF3C6H4; R1=n-C3H7; R2=n-C3H7; R3=H, 4-Di(n-propyl)amino-6-(m-trifluoromethylphenyl)pyrimidine hydrochloride] | 50 | – | 99
CC(=O)Nc1cccc(-c2cc(N3CCCC3)ncn2)c1 [Ar=3-CH3CONHC6H4; R1,R2=--(CH2)4--; R3=H] | 30 | – | 94
CC(=O)Nc1cccc(-c2cc(N(C)C)ncn2)c1 [Ar=3-CH3CONHC6H4; R1=CH3; R2=CH3; R3=H] | 13 | – | 93

Structure (SMILES) | inhibition at 60 µM [%] | inhibition at 6 µM [%] | inhibition at 600 µM [%]
Nc1cccc(-c2cc(N3CCCC3)ncn2)c1 [Ar=3-NH2C6H4; R1,R2=--(CH2)4--; R3=H] | – | – | 11
CCN(CC)c1cc(-c2cccc(N)c2)ncn1 [Ar=3-NH2C6H4; R1=C2H5; R2=C2H5; R3=H, 4-Diethylamino-6-(m-aminophenyl)pyrimidine dihydrochloride] | 67 | 41 | –
CCCN(CCC)c1cc(-c2cccc(N)c2)ncn1 [Ar=3-NH2C6H4; R1=n-C3H7; R2=n-C3H7; R3=H] | 97 | 32 | 95
O=[N+]([O-])c1cccc(-c2cc(N3CCCC3)ncn2)c1 [Ar=3-NO2C6H4; R1,R2=--(CH2)4--; R3=H] | 25 | – | 94
COc1ccc(-c2cc(N3CCCC3)ncn2)cc1 [Ar=4-CH3OC6H4; R1,R2=--(CH2)4--; R3=H] | 92 | 39 | 92
CCc1c(-c2ccc(OC)cc2)ncnc1N(CC)CC [Ar=4-CH3OC6H4; R1=C2H5; R2=C2H5; R3=C2H5] | – | 42 | –
COc1ccc(-c2cc(N(C)C)ncn2)cc1 [Ar=4-CH3OC6H4; R1=CH3; R2=CH3; R3=H] | 88 | 48 | 89
CCNc1cc(-c2ccc(OC)cc2)ncn1 [Ar=4-CH3OC6H4; R1=H; R2=C2H5; R3=H] | 64 | 24 | 92
CNc1cc(-c2ccc(OC)cc2)ncn1 [Ar=4-CH3OC6H4; R1=H; R2=CH3; R3=H] | 13 | – | 76
COc1ccc(-c2cc(N)ncn2)cc1 [Ar=4-CH3OC6H4; R1=H; R2=H; R3=H] | 24 | 3 | 72
COc1ccc(-c2cc(NCC(C)C)ncn2)cc1 [Ar=4-CH3OC6H4; R1=H; R2=i-C4H9; R3=H] | 54 | 24 | 76
Clc1ccc(-c2cc(N3CCCC3)ncn2)cc1 [Ar=4-ClC6H4; R1,R2=--(CH2)4--; R3=H, 4-(1-Pyrrolidinyl)-6-(p-chlorophenyl)pyrimidine hydrochloride] | 21 | – | 99
CCN(CC)c1cc(-c2ccc(Cl)cc2)ncn1 [Ar=4-ClC6H4; R1=C2H5; R2=C2H5; R3=H, 4-Diethylamino-6-(p-chlorophenyl)pyrimidine hydrochloride] | 73 | 32 | –
CCN(CCO)c1cc(-c2ccc(Cl)cc2)ncn1 [Ar=4-ClC6H4; R1=C2H5; R2=HO(CH2)2; R3=H] | 57 | 18 | –
FC(F)(F)CNc1cc(-c2ccc(Cl)cc2)ncn1 [Ar=4-ClC6H4; R1=CF3CH2; R2=H; R3=H, 4-(2,2,2-Trifluoroethylamino)-6-(p-chlorophenyl)pyrimidine hydrochloride] | 18 | – | 86
CN(C)c1cc(-c2ccc(Cl)cc2)ncn1 [Ar=4-ClC6H4; R1=CH3; R2=CH3; R3=H, 4-Dimethylamino-6-(p-chlorophenyl)pyrimidine hydrochloride] | 58 | 7 | 99
CCCN(CCC)c1cc(-c2ccc(Cl)cc2)ncn1 [Ar=4-ClC6H4; R1=n-C3H7; R2=n-C3H7; R3=H, 4-Di(n-propyl)amino-6-(p-chlorophenyl)pyrimidine hydrochloride] | 70 | – | 84
c1ccc(-c2cc(N3CCOCC3)ncn2)cc1 [Ar=C6H5; R1,R2=--(CH2)2O(CH2)2--; R3=H, 4-(4-Morpholinyl)-6-phenylpyrimidine hydrochloride] | 75 | 37 | 94
c1ccc(-c2cc(N3CCCC3)ncn2)cc1 [Ar=C6H5; R1,R2=--(CH2)4--; R3=H, 4-(1-Pyrrolidinyl)-6-phenylpyrimidine hydrochloride] | 70 | 6 | 98
c1ccc(-c2cc(N3CCCCC3)ncn2)cc1 [Ar=C6H5; R1,R2=--(CH2)5--; R3=H, 4-(1-Piperidyl)-6-phenylpyrimidine hydrochloride] | 61 | 60 | 94
c1ccc(-c2cc(N3CCCCCC3)ncn2)cc1 [Ar=C6H5; R1,R2=--(CH2)6--; R3=H, 4-(1-Hexahydroazepinyl)-6-phenylpyrimidine hydrochloride] | 83 | 29 | 99
CN(Cc1cccnc1)c1cc(-c2ccccc2)ncn1 [Ar=C6H5; R1=3-picolyl; R2=CH3; R3=H, 4-[Methyl(3-pyridylmethyl)amino]-6-phenylpyrimidine dihydrochloride] | 17 | – | 99
c1ccc(-c2cc(NCc3cccnc3)ncn2)cc1 [Ar=C6H5; R1=3-picolyl; R2=H; R3=H, 4-(3-Pyridylmethylamino)-6-phenylpyrimidine dihydrochloride] | 31 | 12 | 98
CN(C)CCNc1cc(-c2ccccc2)ncn1 [Ar=C6H5; R1=(CH3)2N(CH2)2; R2=H; R3=H] | 30 | – | 99
